Values quoted from earlier work in patent US20040143023A1, “Materials and methods for synthesizing stilbenes” (priority 2000, published 2004).

Assays:
[1] = in water and saline
[2] = test system: P388 murine leukaemia cell line; settings: cell line not restated for the trans isomer

Compound | toxicity toward tumour vasculature (tumour vasculature) | solubility [1] | concentration range in which cell growth is inhibited [2]
COc1ccc(/C=C\c2cc(OC)c(OC)c(OC)c2)cc1O [cis-combretastatin A-4, Z-1-(3′-Hydroxy-4′-methoxyphenyl)-2-(3″,4″,5″-trimethoxyphenyl)ethene] | potent and selective toxicity | low solubility | –
COc1ccc(/C=C/c2cc(OC)c(OC)c(OC)c2)cc1O [trans-combretastatin A-4, E-1-(3′-Hydroxy-4′-methoxy)-2-(Trimethoxyphenyl)-2-(3″,4″,5″-trimethoxyphenyl)ethene] | – | – | millimblar range
